Assay results published in the supplement of paper PMC10307832.

Columns and labels:
Assay in all cases: relative viability (nuclei count vs DMSO), 5 days (fraction); higher = more cells survive
KIN001-266 + Phenformin = compound: CCN1CCC(CC1)N2C=C(N=N2)CNC3=CC4=C(C(=CN=C4C(=C3)Cl)C#N)NC5=CC(=C(C=C5)F)Cl [KIN001-266] + N=C(N)NC(=N)NCCc1ccccc1 [Phenformin] (partner 250 µM)
Procedure, shortened: (§1)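 Nuclei were stained with Hoechst during a one-step fixation (final 0.05% Triton X-100, 1% formaldehyde, 1 ug/ml Hoechst) carried out 5 days after dosing, then counted on 4× images. The cells, lung cancer lines in 1536-well plates, had been dosed by pin tool the day after seeding with one drug alone or a fixed anchor-drug dose plus five library-drug doses (not always all listed) in √10 steps. Relative viability is the nuclei count in treated wells divided by that in vehicle wells, and each value is the median of duplicate plates.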

KIN001-266 + Trametinib = compound: CCN1CCC(CC1)N2C=C(N=N2)CNC3=CC4=C(C(=CN=C4C(=C3)Cl)C#N)NC5=CC(=C(C=C5)F)Cl [KIN001-266] + CC(=O)Nc1cccc(-n2c(=O)n(C3CC3)c(=O)c3c(Nc4ccc(I)cc4F)n(C)c(=O)c(C)c32)c1 [Trametinib] (partner 0.02 µM)
Procedure, shortened: as §1

KIN001-266 + OSI-027 = compound: CCN1CCC(CC1)N2C=C(N=N2)CNC3=CC4=C(C(=CN=C4C(=C3)Cl)C#N)NC5=CC(=C(C=C5)F)Cl [KIN001-266] + COc1cccc2cc(-c3nc([C@H]4CC[C@H](C(=O)O)CC4)n4ncnc(N)c34)[nH]c12 [OSI-027] (partner 0.5 µM)
Procedure, shortened: as §1

KIN001-266 = compound: CCN1CCC(CC1)N2C=C(N=N2)CNC3=CC4=C(C(=CN=C4C(=C3)Cl)C#N)NC5=CC(=C(C=C5)F)Cl [KIN001-266]
Procedure, shortened: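 Lung cancer cell lines in 1536-well plates were exposed by pinning to five library-drug doses (not always all listed) √10 apart, following an overnight hold at 37 °C. MetaXpress counted Hoechst-stained nuclei from 4× images taken after 5 days without medium change. Viability is the median ratio of treated-well to vehicle-well nuclei across plates. Plates required control CV below 25% and at least one doubling.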

Cell Line	relative viability (KIN001-266 + Phenformin; first compound 0.08 µM)	relative viability (KIN001-266 + Phenformin; first compound 0.253 µM)	relative viability (KIN001-266 + Phenformin; first compound 0.8 µM)	relative viability (KIN001-266 + Phenformin; first compound 2.53 µM)	relative viability (KIN001-266 + Phenformin; first compound 8 µM)	relative viability (KIN001-266 + Trametinib; first compound 0.08 µM)	relative viability (KIN001-266 + Trametinib; first compound 0.253 µM)	relative viability (KIN001-266 + Trametinib; first compound 0.8 µM)	relative viability (KIN001-266 + Trametinib; first compound 2.53 µM)	relative viability (KIN001-266 + Trametinib; first compound 8 µM)	relative viability (KIN001-266 + OSI-027; first compound 0.08 µM)	relative viability (KIN001-266 + OSI-027; first compound 0.253 µM)	relative viability (KIN001-266 + OSI-027; first compound 0.8 µM)	relative viability (KIN001-266 + OSI-027; first compound 2.53 µM)	relative viability (KIN001-266 + OSI-027; first compound 8 µM)	relative viability (KIN001-266; 0.08 µM)	relative viability (KIN001-266; 0.253 µM)	relative viability (KIN001-266; 0.8 µM)	relative viability (KIN001-266; 2.53 µM)	relative viability (KIN001-266; 8 µM)
201T	0.449	0.45	0.386	0.457	0.434	0.74	0.724	0.686	0.708	0.754	0.786	0.53	0.8	0.776	0.735	1.02	1	0.959	0.995	0.956
A549	0.22	0.178	0.131	0.14	0.14	–	–	–	–	–	–	–	–	–	–	1.02	0.974	1.03	0.891	0.939
A-427	0.357	0.307	0.289	0.275	0.247	0.823	0.73	0.711	0.618	0.658	0.492	0.478	0.499	0.475	0.48	1.04	1.06	1.05	0.928	0.953
ABC-1	0.255	0.241	0.283	0.251	0.312	–	–	–	–	–	0.649	0.436	0.622	0.392	0.375	1.03	1.11	1.12	0.959	0.774
BEN	0.262	0.262	0.275	0.259	0.231	1.01	1.01	1.07	1.03	1.15	0.296	0.335	0.305	0.274	0.283	0.991	0.931	1.06	0.864	0.996
CAL-12T	0.571	0.545	0.515	0.568	0.534	0.357	0.442	0.351	0.293	0.37	0.696	0.742	0.538	0.508	0.509	1.07	0.965	0.956	1.09	0.994
COR-L23	0.439	0.452	0.452	0.455	0.368	0.634	0.667	0.651	0.512	0.486	0.851	0.788	0.895	0.657	0.582	1	0.984	1.02	0.983	0.828
COR-L 105	0.48	0.641	0.534	0.641	0.431	0.42	0.517	0.417	0.43	0.455	0.683	0.822	0.66	0.645	0.576	0.942	0.967	0.963	1	0.902
Calu-6	–	–	–	–	–	–	–	–	–	–	–	–	–	–	–	0.995	1.04	1.02	0.969	0.798
ChaGo-K-1	0.508	0.505	0.473	0.48	0.454	0.914	0.915	0.87	0.637	0.459	0.657	0.551	0.553	0.647	0.459	1.04	1.03	0.92	0.929	0.886
EKVX	0.234	0.237	0.2	0.243	0.225	0.336	0.312	0.303	0.412	0.344	0.702	0.706	0.683	0.685	0.52	0.989	1	0.841	0.868	0.941
EMC-BAC-2	0.56	0.516	0.482	0.54	0.475	0.896	0.958	0.842	0.868	0.855	0.456	0.448	0.373	0.419	0.365	1.07	1.21	0.98	1.07	0.989
EPLC-272H	0.334	0.317	0.274	0.234	0.239	0.295	0.273	0.284	0.27	0.275	0.306	0.303	0.242	0.249	0.264	1.08	1	0.915	0.893	0.686
H3255	0.356	0.373	0.353	0.353	0.345	0.545	0.581	0.643	0.659	0.484	0.555	0.618	0.52	0.542	0.606	1.01	1.06	0.96	0.96	0.78
HARA	0.455	0.483	0.433	0.457	0.295	0.634	0.868	0.91	0.858	0.424	0.559	0.644	0.395	0.501	0.276	0.959	1.04	0.937	1.06	0.747
HCC-15	0.48	0.472	0.421	0.43	0.34	0.413	0.392	0.388	0.344	0.328	0.71	0.699	0.63	0.524	0.518	1.02	1.03	0.875	0.868	0.689
HCC-44	0.229	0.185	0.197	0.26	0.3	1.13	1.06	1.07	1.07	1.16	0.5	0.664	0.605	0.441	0.593	0.967	0.994	0.983	0.968	1.08
